According to ChEMBL document CHEMBL2040786, “Click chemistry-derived bivalent quinine inhibitors of P-glycoprotein-mediated cellular efflux” (Bioorg Med Chem Lett, 2012):

How the values were obtained:
[1] = target: T1, ATP-dependent translocase ABCB1 (Homo sapiens, UniProt P08183); experiment: Inhibition of p-glycoprotein expressed in human MCF-7/DX1 cells assessed as accumulation of calcein-AM by FACS analysis; type: cell-based
[2] = target: T1, ATP-dependent translocase ABCB1; experiment: Inhibition of p-glycoprotein expressed in human MCF-7/DX1 cells assessed as accumulation of calcein-AM at 1 uM by FACS analysis; type: cell-based

T1 sequence (P08183 whole entry): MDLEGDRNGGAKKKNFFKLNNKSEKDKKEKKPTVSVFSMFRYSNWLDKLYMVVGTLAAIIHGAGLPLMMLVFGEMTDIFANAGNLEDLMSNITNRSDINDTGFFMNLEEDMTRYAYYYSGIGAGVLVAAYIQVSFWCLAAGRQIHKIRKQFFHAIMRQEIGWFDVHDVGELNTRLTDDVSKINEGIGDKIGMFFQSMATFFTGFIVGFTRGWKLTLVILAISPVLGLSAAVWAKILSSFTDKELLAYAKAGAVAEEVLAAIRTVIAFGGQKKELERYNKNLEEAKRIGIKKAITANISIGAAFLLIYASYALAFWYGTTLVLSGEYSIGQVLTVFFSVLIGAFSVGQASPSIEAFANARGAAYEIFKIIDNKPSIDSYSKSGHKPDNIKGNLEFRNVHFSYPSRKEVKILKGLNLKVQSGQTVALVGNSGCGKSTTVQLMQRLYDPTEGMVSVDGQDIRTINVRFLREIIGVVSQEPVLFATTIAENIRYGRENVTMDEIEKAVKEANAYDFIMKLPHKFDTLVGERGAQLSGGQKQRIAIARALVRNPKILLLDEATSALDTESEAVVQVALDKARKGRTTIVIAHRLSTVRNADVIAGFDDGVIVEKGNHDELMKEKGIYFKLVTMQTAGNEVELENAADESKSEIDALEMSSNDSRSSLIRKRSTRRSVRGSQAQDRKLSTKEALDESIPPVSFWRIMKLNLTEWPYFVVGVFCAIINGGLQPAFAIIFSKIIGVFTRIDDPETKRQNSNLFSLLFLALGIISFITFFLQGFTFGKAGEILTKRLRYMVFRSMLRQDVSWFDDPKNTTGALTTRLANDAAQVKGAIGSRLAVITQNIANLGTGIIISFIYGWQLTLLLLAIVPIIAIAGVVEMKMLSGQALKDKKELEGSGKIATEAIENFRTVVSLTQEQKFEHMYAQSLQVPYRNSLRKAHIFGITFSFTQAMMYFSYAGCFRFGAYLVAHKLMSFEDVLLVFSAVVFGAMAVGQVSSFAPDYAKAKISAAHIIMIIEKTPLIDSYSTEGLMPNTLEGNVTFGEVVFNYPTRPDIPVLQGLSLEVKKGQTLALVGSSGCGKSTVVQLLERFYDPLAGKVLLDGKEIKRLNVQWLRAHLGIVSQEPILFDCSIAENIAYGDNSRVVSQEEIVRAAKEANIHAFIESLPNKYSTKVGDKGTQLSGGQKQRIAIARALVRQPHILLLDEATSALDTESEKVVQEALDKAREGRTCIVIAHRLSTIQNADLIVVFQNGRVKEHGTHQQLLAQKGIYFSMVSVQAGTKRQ

Compound | IC50 [1] [µM] | inhibition (INH) [2]
C=C[C@H]1CN2CC[C@H]1C[C@H]2[C@H](OC(=O)CCc1cn(CCC(=O)O[C@H](c2ccnc3ccc(OC)cc23)[C@@H]2C[C@@H]3CCN2C[C@@H]3C=C)nn1)c1ccnc2ccc(OC)cc12 | 6.1 | 
C=C[C@H]1CN2CC[C@H]1C[C@H]2[C@H](OC(=O)CCCCn1cc(CCC(=O)O[C@H](c2ccnc3ccc(OC)cc23)[C@@H]2C[C@@H]3CCN2C[C@@H]3C=C)nn1)c1ccnc2ccc(OC)cc12 | 6.2 | 
C=C[C@H]1CN2CC[C@H]1C[C@H]2[C@H](OC(=O)CCCCc1cn(CCCCC(=O)O[C@H](c2ccnc3ccc(OC)cc23)[C@@H]2C[C@@H]3CCN2C[C@@H]3C=C)nn1)c1ccnc2ccc(OC)cc12 | 4.6 | 
C=C[C@H]1CN2CC[C@H]1C[C@H]2[C@H](OC(=O)CCCCCCCCc1cn(CCCCCCCCC(=O)O[C@H](c2ccnc3ccc(OC)cc23)[C@@H]2C[C@@H]3CCN2C[C@@H]3C=C)nn1)c1ccnc2ccc(OC)cc12 | 4.5 | 

These reach a lower IC50 [1]. Values come first.

IC50 [1] [µM] | inhibition (INH) [2] | Compound
3.6 |  | C=C[C@H]1CN2CC[C@H]1C[C@H]2[C@H](OC(=O)CCCCCCn1cc(CCC(=O)O[C@H](c2ccnc3ccc(OC)cc23)[C@@H]2C[C@@H]3CCN2C[C@@H]3C=C)nn1)c1ccnc2ccc(OC)cc12
2.9 |  | C=C[C@H]1CN2CC[C@H]1C[C@H]2[C@H](OC(=O)CCCCCCn1cc(CCCCC(=O)O[C@H](c2ccnc3ccc(OC)cc23)[C@@H]2C[C@@H]3CCN2C[C@@H]3C=C)nn1)c1ccnc2ccc(OC)cc12
2.8 |  | C=C[C@H]1CN2CC[C@H]1C[C@H]2[C@H](OC(=O)CCCCCCc1cn(CCCCC(=O)O[C@H](c2ccnc3ccc(OC)cc23)[C@@H]2C[C@@H]3CCN2C[C@@H]3C=C)nn1)c1ccnc2ccc(OC)cc12
2.7 | Active | C=C[C@H]1CN2CC[C@H]1C[C@H]2[C@H](OC(=O)CCCCCCc1cn(CCCCCCC(=O)O[C@H](c2ccnc3ccc(OC)cc23)[C@@H]2C[C@@H]3CCN2C[C@@H]3C=C)nn1)c1ccnc2ccc(OC)cc12
